PMC5570656 (Journal of medicinal chemistry, 2017)
Where a name gives a salt, the structure may show the parent alone. Blank lines part the entries; values can stand above or below the molecule they belong to.

Key:
[1] = mice, in words, earlier work; cited from earlier work
[2] = rats, in words, earlier work; cited from earlier work
[3] = test system: 45 different CNS targets and receptors; details: of 45 targets, cited from earlier work
Caco-2 = details: in words, previously designed inhibitors; cited from earlier work
[4] = in words
murine macrophage iNOS = murine macrophage iNOS (Mus musculus, UniProt P29477); details: ratio of respective Ki values
Sequence of murine macrophage iNOS (P29477 whole entry): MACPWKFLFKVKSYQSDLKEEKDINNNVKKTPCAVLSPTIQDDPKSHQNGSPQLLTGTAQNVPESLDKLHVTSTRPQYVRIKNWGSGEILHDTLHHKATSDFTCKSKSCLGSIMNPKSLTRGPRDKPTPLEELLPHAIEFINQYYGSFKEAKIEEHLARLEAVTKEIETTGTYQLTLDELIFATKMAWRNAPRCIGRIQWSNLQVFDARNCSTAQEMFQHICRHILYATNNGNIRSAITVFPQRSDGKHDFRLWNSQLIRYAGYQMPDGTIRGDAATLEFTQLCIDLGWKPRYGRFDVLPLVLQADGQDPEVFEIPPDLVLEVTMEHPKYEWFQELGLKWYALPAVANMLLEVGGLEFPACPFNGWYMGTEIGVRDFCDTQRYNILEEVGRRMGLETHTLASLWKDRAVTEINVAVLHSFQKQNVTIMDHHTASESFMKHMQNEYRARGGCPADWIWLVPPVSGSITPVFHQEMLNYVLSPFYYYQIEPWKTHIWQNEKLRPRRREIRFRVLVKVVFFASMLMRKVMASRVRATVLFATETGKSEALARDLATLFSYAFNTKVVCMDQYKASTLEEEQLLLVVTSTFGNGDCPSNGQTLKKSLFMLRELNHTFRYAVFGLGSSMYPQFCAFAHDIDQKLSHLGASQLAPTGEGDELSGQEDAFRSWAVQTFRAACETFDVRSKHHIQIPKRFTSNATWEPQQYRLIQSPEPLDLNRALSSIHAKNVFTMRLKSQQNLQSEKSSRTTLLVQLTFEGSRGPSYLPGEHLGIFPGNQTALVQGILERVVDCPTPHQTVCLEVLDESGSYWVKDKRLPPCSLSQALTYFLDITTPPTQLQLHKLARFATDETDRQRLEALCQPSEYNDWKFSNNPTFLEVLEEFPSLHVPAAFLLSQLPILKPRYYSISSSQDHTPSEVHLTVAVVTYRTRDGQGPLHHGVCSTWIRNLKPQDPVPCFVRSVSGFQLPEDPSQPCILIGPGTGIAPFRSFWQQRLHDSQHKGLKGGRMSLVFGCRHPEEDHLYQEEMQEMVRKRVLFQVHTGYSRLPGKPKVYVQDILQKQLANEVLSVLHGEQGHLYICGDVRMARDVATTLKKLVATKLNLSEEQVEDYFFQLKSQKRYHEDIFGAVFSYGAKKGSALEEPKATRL

bovine eNOS = bovine eNOS (Bos taurus, UniProt P29473); details: ratio of respective Ki values
Sequence of bovine eNOS (P29473 whole entry): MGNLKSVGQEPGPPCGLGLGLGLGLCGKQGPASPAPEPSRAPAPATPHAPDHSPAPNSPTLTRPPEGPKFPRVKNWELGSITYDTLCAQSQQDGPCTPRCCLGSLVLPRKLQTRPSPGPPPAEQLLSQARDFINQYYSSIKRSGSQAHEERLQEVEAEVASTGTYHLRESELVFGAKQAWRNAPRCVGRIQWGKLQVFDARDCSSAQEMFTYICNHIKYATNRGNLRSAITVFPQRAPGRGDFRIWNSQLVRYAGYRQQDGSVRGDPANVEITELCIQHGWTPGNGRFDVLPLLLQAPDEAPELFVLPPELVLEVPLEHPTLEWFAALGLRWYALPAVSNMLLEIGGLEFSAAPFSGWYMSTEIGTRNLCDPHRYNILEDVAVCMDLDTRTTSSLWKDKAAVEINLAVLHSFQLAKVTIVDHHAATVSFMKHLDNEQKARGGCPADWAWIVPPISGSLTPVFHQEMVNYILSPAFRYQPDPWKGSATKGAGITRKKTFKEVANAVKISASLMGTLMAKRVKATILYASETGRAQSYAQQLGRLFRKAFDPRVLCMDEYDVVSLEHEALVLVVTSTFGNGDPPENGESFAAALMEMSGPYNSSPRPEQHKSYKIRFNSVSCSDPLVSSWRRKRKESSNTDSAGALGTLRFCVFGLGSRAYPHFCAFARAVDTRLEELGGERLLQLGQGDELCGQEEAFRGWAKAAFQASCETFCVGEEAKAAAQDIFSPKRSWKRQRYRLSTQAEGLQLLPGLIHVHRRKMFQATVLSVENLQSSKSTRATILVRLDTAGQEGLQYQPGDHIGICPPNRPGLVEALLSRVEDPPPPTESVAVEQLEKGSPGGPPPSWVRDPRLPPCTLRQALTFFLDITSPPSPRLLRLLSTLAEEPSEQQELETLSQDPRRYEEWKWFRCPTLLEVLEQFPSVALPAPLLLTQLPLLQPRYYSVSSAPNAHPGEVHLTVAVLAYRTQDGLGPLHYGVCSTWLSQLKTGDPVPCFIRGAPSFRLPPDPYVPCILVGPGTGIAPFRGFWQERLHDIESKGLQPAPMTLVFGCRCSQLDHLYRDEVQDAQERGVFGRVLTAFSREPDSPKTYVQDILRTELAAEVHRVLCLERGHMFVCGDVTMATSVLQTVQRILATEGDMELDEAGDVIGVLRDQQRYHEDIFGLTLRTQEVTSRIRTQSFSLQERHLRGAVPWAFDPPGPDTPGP

nNOS = nNOS (Homo sapiens, UniProt P29475); assay: Stability of stored compound solutions; assay type: physicochemical; details: solutions stored for longer periods of time (ca. one week)
Sequence of nNOS (P29475 whole entry): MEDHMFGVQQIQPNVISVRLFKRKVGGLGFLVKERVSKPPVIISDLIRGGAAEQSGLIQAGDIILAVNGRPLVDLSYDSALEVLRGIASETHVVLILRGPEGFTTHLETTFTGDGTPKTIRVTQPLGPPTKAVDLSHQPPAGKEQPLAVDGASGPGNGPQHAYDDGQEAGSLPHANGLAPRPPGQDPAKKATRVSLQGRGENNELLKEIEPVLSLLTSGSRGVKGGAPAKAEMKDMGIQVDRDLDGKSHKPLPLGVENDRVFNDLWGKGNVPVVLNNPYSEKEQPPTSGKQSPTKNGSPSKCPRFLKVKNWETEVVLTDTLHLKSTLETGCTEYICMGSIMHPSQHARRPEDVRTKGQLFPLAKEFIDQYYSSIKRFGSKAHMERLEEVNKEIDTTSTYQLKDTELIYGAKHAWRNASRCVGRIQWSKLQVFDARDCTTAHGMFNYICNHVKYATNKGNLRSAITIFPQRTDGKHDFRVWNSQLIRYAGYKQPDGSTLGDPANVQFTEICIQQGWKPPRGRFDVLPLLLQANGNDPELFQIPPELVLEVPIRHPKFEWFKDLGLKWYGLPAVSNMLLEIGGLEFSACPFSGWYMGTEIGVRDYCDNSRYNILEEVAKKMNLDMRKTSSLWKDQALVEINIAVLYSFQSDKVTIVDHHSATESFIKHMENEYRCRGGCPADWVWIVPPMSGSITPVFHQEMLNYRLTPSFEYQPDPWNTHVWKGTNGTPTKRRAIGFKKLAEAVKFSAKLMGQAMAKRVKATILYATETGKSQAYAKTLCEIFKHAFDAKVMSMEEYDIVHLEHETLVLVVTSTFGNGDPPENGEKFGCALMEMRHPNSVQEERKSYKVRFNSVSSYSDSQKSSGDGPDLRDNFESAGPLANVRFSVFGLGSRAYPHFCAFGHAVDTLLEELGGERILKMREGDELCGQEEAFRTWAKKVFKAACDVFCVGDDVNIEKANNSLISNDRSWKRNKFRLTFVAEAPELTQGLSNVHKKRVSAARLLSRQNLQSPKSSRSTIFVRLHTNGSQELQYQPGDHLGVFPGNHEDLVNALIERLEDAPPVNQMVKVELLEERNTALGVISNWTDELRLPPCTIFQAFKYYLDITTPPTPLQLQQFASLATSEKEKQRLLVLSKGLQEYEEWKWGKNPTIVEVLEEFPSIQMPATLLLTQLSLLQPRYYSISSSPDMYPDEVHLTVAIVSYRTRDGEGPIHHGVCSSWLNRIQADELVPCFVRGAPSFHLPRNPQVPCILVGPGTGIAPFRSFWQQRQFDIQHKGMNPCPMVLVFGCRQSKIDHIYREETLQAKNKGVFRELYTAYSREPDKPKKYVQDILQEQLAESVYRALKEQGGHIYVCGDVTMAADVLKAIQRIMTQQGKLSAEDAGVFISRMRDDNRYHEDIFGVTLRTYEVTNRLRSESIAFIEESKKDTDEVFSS

Structure (SMILES): Nc1ccc2ccc(CCNCCc3cccc(F)c3)cc2n1 [Compound 4]
oral bioavailability [1]: good

Structure (SMILES): Nc1ccc2ccc(CCNCCc3cccc(Cl)c3)cc2n1 [Compound 5]
brain penetration [2]: brain penetration

Structure (SMILES): CNCc1cc(OCc2ccc3ccc(N)nc3c2)ccc1Cl [Compound 6]
PDSP number of targets classified Moderate ([3]; 100-300 nM): 3
PDSP number of targets classified Insignificant ([3]; <50% bound at 10 μM): 22
PDSP number of targets classified Weak ([3]; >300 nM): 17
PDSP number of targets classified Concerning ([3]; Ki <100 nM): 3
Caco-2 permeability (Caco-2): poor

solubility [4]: poor
Structure (SMILES): N#Cc1cccc(NCc2ccc3ccc(N)nc3c2)c1 [Compound 7, 3-(((2-Aminoquinolin-7-yl)methyl)amino)benzonitrile Dihydrochloride]

Selectivity rn/mi (murine macrophage iNOS): 71
Selectivity rn/be (bovine eNOS): 16
Structure (SMILES): CN(C)c1cccc(CNCc2ccc3ccc(N)nc3c2)c1 [Compound 12, 7-(((3-(Dimethylamino)benzyl)amino)methyl)quinolin-2-amine Trihydrochloride]

Structure (SMILES): CN(C)c1cccc(CCNCc2ccc3ccc(N)nc3c2)c1 [Compound 14, 3-(Dimethylamino)phenethyl)amino)methyl)quinolin-2-amine Trihydrochloride]
stability of solutions (nNOS): lost their nNOS inhibitory activity
